Experimental data from the NIST ThermoML archive (doi:10.1021/je8003595).

Assay: mn = molality of the nth substance listed, in mol/kg
Details: 101 kPa, Liquid; for viscosity: Capillary tube (Ostwald / Ubbelohde) method

O=C(Oc1ccccc1)c1ccccc1O [phenyl salicylate] + CC#N
Details | mass density [kg/m3] | viscosity [mPa·s]
293.15 K, m1 = 0.0096 | 783.179 | 0.3086
293.15 K, m1 = 0.0128 | 783.379 | 0.3087
293.15 K, m1 = 0.016 | 783.559 | 0.3088
293.15 K, m1 = 0.0192 | 783.709 | 0.3091
293.15 K, m1 = 0.0224 | 783.871 | 0.3092
293.15 K, m1 = 0.0257 | 784.031 | 0.3094
293.15 K, m1 = 0.0321 | 784.222 | 0.3097
298.15 K, m1 = 0.0097 | 777.771 | 0.2867
298.15 K, m1 = 0.0129 | 777.981 | 0.2869
298.15 K, m1 = 0.0161 | 778.151 | 0.2871
298.15 K, m1 = 0.0194 | 778.309 | 0.2873
298.15 K, m1 = 0.0226 | 778.451 | 0.2875
298.15 K, m1 = 0.0258 | 778.609 | 0.2876
298.15 K, m1 = 0.0323 | 778.835 | 0.288
303.15 K, m1 = 0.0097 | 772.334 | 0.2649
303.15 K, m1 = 0.013 | 772.545 | 0.265
303.15 K, m1 = 0.0162 | 772.724 | 0.2652
303.15 K, m1 = 0.0195 | 772.856 | 0.2653
303.15 K, m1 = 0.0227 | 773.025 | 0.2655
303.15 K, m1 = 0.026 | 773.165 | 0.2656
303.15 K, m1 = 0.0326 | 773.351 | 0.2659
308.15 K, m1 = 0.0098 | 766.875 | 0.2453
308.15 K, m1 = 0.0131 | 767.071 | 0.2455
308.15 K, m1 = 0.0164 | 767.241 | 0.2457
308.15 K, m1 = 0.0197 | 767.385 | 0.2459
308.15 K, m1 = 0.023 | 767.558 | 0.2461
308.15 K, m1 = 0.0263 | 767.695 | 0.2463
308.15 K, m1 = 0.0329 | 767.859 | 0.2466
310.15 K, m1 = 0.0098 | 764.642 | 0.238
310.15 K, m1 = 0.0131 | 764.835 | 0.2381
310.15 K, m1 = 0.0164 | 765.015 | 0.2382
310.15 K, m1 = 0.0197 | 765.153 | 0.2384
310.15 K, m1 = 0.023 | 765.331 | 0.2385
310.15 K, m1 = 0.0263 | 765.465 | 0.2386
310.15 K, m1 = 0.0329 | 765.629 | 0.2388
313.15 K, m1 = 0.0099 | 761.351 | 0.2272
313.15 K, m1 = 0.0132 | 761.545 | 0.2274
313.15 K, m1 = 0.0165 | 761.711 | 0.2276
313.15 K, m1 = 0.0198 | 761.849 | 0.2278
313.15 K, m1 = 0.0231 | 762.019 | 0.2279
313.15 K, m1 = 0.0264 | 762.135 | 0.228
313.15 K, m1 = 0.033 | 762.341 | 0.2282
